Measurements published in the supplement of paper PMC11208160.

Experiment: recombinant UMI read abundance after kanamycin selection (control-corrected) (log10(CPM+1)); higher = more efficient recombination; extreme values may be limits of the assay; sequences stand for … in AGTGCAGAGAAAATCGGCCAGTTTTCTCTGCCTGCAGTCCGCATGCCGTGGGACCCCTTGGGTTCTAACCTGTTGCCTAGATTTATGCAGCGGACTGCCTTTCTCCCAAAGTGATAAACCGG…AGGTTGGTTTCACT; site = the 11-nt donor
In short: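 Sequencing read counts were converted to CPM, averaged over two replicates and scaled by control-derived factors. Results are given as log10(CPM+1). The reads covered the donor–target junction of recombinant UMIs from a pooled Escherichia coli screen of donor and donor-binding-loop pairs for the IS621 bridge recombinase.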
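Further: IS621 bridge recombinase in Escherichia coli cells against a fixed T5 target plasmid.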

Sequence | recombinant UMI read abundance (log10)
TGTGGCTCATGGACCGGTTTTCCCGGTAATCCGTATTTGCT (site TGTGGCTCTAG) | 1.33
TGTGTGACATGGACCGGTTTTCCCGGTAATCCGTATTTGTC (site TGTGTGACTGA) | 0
TGTTAACCATGGACCGGTTTTCCCGGTAATCCGTATTTGCT (site TGTTAACCTAG) | 0
TGTTCACCATGGACCGGTTTTCCCGGTAATCCGTATTTGTA (site TGTTCACCTTA) | 0.00651
TGTTCACCATGGACCGGTTTTCCCGGTAATCCGTATTTGTA (site TGTTCCCCTTA) | 0.104
TGTTCACCATGGACCGGTTTTCCCGGTAATCCGTATTTGTA (site TGTTCGCCTTA) | 0.00766
TGTTCACCATGGACCGGTTTTCCCGGTAATCCGTATTTGTA (site TGTTCTCCTTA) | 0.00688
TGTTCCCCATGGACCGGTTTTCCCGGTAATCCGTATTTGAA (site TGTTCCCCTTA) | 0.0134
TGTTCCCCATGGACCGGTTTTCCCGGTAATCCGTATTTGAA (site TGTTCCCCTTC) | 0.011
TGTTCCCCATGGACCGGTTTTCCCGGTAATCCGTATTTGAA (site TGTTCCCCTTG) | 0
TGTTCCCCATGGACCGGTTTTCCCGGTAATCCGTATTTGAA (site TGTTCCCCTTT) | 0.0201
TGTTCCCCATGGACCGGTTTTCCCGGTAATCCGTATTTGGA (site TGTTCCCCTTA) | 0.0182
TGTTCCCCATGGACCGGTTTTCCCGGTAATCCGTATTTGGA (site TGTTCCCCTTC) | 0.128
TGTTCCCCATGGACCGGTTTTCCCGGTAATCCGTATTTGGA (site TGTTCCCCTTG) | 0.00301
TGTTCCCCATGGACCGGTTTTCCCGGTAATCCGTATTTGGA (site TGTTCCCCTTT) | 0.02
TGTTCCCCATGGACCGGTTTTCCCGGTAATCCGTATTTGTC (site TGTTCCCCTAA) | 0.0126
TGTTCCCCATGGACCGGTTTTCCCGGTAATCCGTATTTGTC (site TGTTCCCCTCA) | 0.00896
TGTTCCCCATGGACCGGTTTTCCCGGTAATCCGTATTTGTC (site TGTTCCCCTGA) | 1.16
TGTTCCCCATGGACCGGTTTTCCCGGTAATCCGTATTTGTC (site TGTTCCCCTTA) | 0.0152
TGTTCCTCATGGACCGGTTTTCCCGGTAATCCGTATTTGTC (site TGTTCCTCTGA) | 0.553
TGTTCGGCATGGACCGGTTTTCCCGGTAATCCGTATTTGAC (site TGTTCGGCTGT) | 0.323
TGTTCTTCATGGACCGGTTTTCCCGGTAATCCGTATTTGCC (site TGTTCTTCTGG) | 1.21
TGTTGATCATGGACCGGTTTTCCCGGTAATCCGTATTTGAG (site TGTTGATCTCT) | 1.22
TGTTTGGCATGGACCGGTTTTCCCGGTAATCCGTATTTGTG (site TATTTGGCTCA) | 0.0286
TGTTTGGCATGGACCGGTTTTCCCGGTAATCCGTATTTGTG (site TCTTTGGCTCA) | 0.00613

Sequence | recombinant UMI read abundance (log10)
TGTTTGGCATGGACCGGTTTTCCCGGTAATCCGTATTTGTG (site TGTTTGGCTCA) | 0.161
TGTTTGGCATGGACCGGTTTTCCCGGTAATCCGTATTTGTG (site TTTTTGGCTCA) | 0.0036
TTAAATCCATGGACCGGTTTTCCCGGTAATCCGTATTTGGT (site TTAAATCCTAC) | 0.0199
TTAATACCATGGACCGGTTTTCCCGGTAATCCGTATTTGAG (site TTAATACCTCT) | 0.0468
TTAATTTCATGGACCGGTTTTCCCGGTAATCCGTATTTGCA (site TTAATTTCTTG) | 0.69
TTACGTCCATGGACCGGTTTTCCCGGTAATCCGTATTTGCA (site TTACGTCCTTG) | 0.977
TTACTACCATGGACCGGTTTTCCCGGTAATCCGTATTTGCG (site TTACTACCTCG) | 0.0128
TTAGAACCATGGACCGGTTTTCCCGGTAATCCGTATTTGCA (site TTAGAACCTTG) | 0
TTAGCCGCATGGACCGGTTTTCCCGGTAATCCGTATTTGAC (site TTAGCCGCTGT) | 2.72
TTAGGATCATGGACCGGTTTTCCCGGTAATCCGTATTTGAT (site TTAGGATCTAT) | 2.58
TTAGTTCCATGGACCGGTTTTCCCGGTAATCCGTATTTGTT (site TTAGTTCCTAA) | 0.183
TTAGTTGCATGGACCGGTTTTCCCGGTAATCCGTATTTGTG (site TTAGATGCTCA) | 0.0164
TTAGTTGCATGGACCGGTTTTCCCGGTAATCCGTATTTGTG (site TTAGCTGCTCA) | 0.0133
TTAGTTGCATGGACCGGTTTTCCCGGTAATCCGTATTTGTG (site TTAGGTGCTCA) | 0.0142
TTAGTTGCATGGACCGGTTTTCCCGGTAATCCGTATTTGTG (site TTAGTTGCTCA) | 1.15
TTATAGGCATGGACCGGTTTTCCCGGTAATCCGTATTTGGA (site TTATAGGCTTC) | 0.419
TTATGAGCATGGACCGGTTTTCCCGGTAATCCGTATTTGTC (site TTATGAGCTGA) | 2.45
TTATGTGCATGGACCGGTTTTCCCGGTAATCCGTATTTGCT (site TTATGTGCTAG) | 2.36
TTATTACCATGGACCGGTTTTCCCGGTAATCCGTATTTGAG (site TTATTACCTCT) | 0.00691
TTATTTGCATGGACCGGTTTTCCCGGTAATCCGTATTTGTA (site TTATTTGCTTA) | 0.103
TTCAACTCATGGACCGGTTTTCCCGGTAATCCGTATTTGAC (site TTCAACTCTGT) | 0
TTCAATTCATGGACCGGTTTTCCCGGTAATCCGTATTTGGG (site TTCAATTCTCC) | 0
TTCCACCCATGGACCGGTTTTCCCGGTAATCCGTATTTGTA (site TTCCACCCTTA) | 0.00477
TTCCAGGCATGGACCGGTTTTCCCGGTAATCCGTATTTGAG (site TTCCAGGCTCT) | 0.0112
TTCCCGCCATGGACCGGTTTTCCCGGTAATCCGTATTTGAA (site TTCCCGCCTTT) | 0.0206

Sequence | recombinant UMI read abundance (log10)
TTCCCTTCATGGACCGGTTTTCCCGGTAATCCGTATTTGTA (site TTCCCTTCTTA) | 0
TTCCGAACATGGACCGGTTTTCCCGGTAATCCGTATTTGGT (site TTCCGAACTAC) | 0.00692
TTCCTGGCATGGACCGGTTTTCCCGGTAATCCGTATTTGAG (site TTCCTGGCTCT) | 0.00387
TTCCTGTCATGGACCGGTTTTCCCGGTAATCCGTATTTGAA (site TTCCTGTCTTT) | 0.0685
TTCGCCACATGGACCGGTTTTCCCGGTAATCCGTATTTGAG (site TTCGCCACTCT) | 0
TTCGCTACATGGACCGGTTTTCCCGGTAATCCGTATTTGGC (site TTCGCTACTGC) | 0
TTCGGATCATGGACCGGTTTTCCCGGTAATCCGTATTTGCT (site TTCGGATCTAG) | 0
TTCGGGCCATGGACCGGTTTTCCCGGTAATCCGTATTTGCC (site TTCGGGCCTGG) | 0
TTCGTATCATGGACCGGTTTTCCCGGTAATCCGTATTTGAC (site CTAGTATCTGT) | 0
TTCGTATCATGGACCGGTTTTCCCGGTAATCCGTATTTGAC (site TTCGTATCTGT) | 0
TTCTGAGCATGGACCGGTTTTCCCGGTAATCCGTATTTGCT (site TTCTGAGCTAG) | 0.802
TTCTTCGCATGGACCGGTTTTCCCGGTAATCCGTATTTGCG (site TTCTTCGCTCG) | 0.00387
TTGAATCCATGGACCGGTTTTCCCGGTAATCCGTATTTGTT (site CGGAATCCTAA) | 0
TTGAATCCATGGACCGGTTTTCCCGGTAATCCGTATTTGTT (site TTGAATCCTAA) | 0.901
TTGAATTCATGGACCGGTTTTCCCGGTAATCCGTATTTGTT (site TTGAATTCTAA) | 0
TTGCACGCATGGACCGGTTTTCCCGGTAATCCGTATTTGGT (site TTGCACGCTAC) | 0.647
TTGCCGTCATGGACCGGTTTTCCCGGTAATCCGTATTTGGT (site TTGCCGTCTAC) | 0.144
TTGCCTTCATGGACCGGTTTTCCCGGTAATCCGTATTTGGT (site TAGCCTTCTAC) | 0.0133
TTGCCTTCATGGACCGGTTTTCCCGGTAATCCGTATTTGGT (site TCGCCTTCTAC) | 0.00778
TTGCCTTCATGGACCGGTTTTCCCGGTAATCCGTATTTGGT (site TGGCCTTCTAC) | 0.0098
TTGCCTTCATGGACCGGTTTTCCCGGTAATCCGTATTTGGT (site TTGCCTTCTAC) | 0.00638
TTGCGGGCATGGACCGGTTTTCCCGGTAATCCGTATTTGGA (site TTGCGGGCTTC) | 0.00996
TTGCGGGCATGGACCGGTTTTCCCGGTAATCCGTATTTGGG (site TTGCGGGCTCC) | 0.00376
TTGCGTTCATGGACCGGTTTTCCCGGTAATCCGTATTTGTC (site TTGCGTTCTGA) | 0
TTGCTGGCATGGACCGGTTTTCCCGGTAATCCGTATTTGAG (site TTGCTGGCTCT) | 0
